The nature of data set [1]: DPPH antioxidant. The conditions noted are these: for IC50: read-out: IC50 (Antioxidant), DPPH assay. For orientation: Loss of DPPH colour is used to gauge radical scavenging.
Data set [2] concerns the target COX-1 (Homo sapiens, UniProt P23219). The data set can be described thus: biochemical.
For data set [3], the system named is Hep G2 cells. The data set is described as follows: Anticancer test. To be noted: for IC50: read-out: IC50 (Hep G2). In kind it is cell-based.
For data set [4], the target named is T1, COX-2 (Homo sapiens, UniProt P35354).
T1 sequence (P35354 18-604): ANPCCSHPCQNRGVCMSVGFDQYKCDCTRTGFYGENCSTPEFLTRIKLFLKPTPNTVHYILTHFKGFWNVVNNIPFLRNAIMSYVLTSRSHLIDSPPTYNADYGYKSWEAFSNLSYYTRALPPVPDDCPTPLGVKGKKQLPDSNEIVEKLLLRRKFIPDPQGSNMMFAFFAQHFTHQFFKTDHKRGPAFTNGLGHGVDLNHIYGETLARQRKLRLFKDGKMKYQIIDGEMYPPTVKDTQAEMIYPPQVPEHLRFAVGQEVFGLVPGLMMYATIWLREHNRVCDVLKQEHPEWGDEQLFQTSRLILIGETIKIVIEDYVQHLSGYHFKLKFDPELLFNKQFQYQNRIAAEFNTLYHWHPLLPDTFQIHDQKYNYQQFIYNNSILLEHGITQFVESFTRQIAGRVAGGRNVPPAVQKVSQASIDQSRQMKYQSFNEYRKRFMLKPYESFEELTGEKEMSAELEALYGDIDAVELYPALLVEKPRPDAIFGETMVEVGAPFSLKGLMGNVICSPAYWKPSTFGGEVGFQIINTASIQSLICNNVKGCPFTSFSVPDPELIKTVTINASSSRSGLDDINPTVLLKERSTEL
The data set is described as follows: biochemical. To be noted: for COX-2 selectivity: selectivity index = IC50 COX-1 / IC50 COX-2.

In data set [5] the test system is Caco-2 cells. The data set can be described thus: Anticancer test. In kind it is cell-based. The conditions noted are these: for IC50: read-out: IC50 (Caco-2 Cells).
For data set [6], the system named is HeLa cells. The data set is described as follows: Anticancer test. In kind it is cell-based. To be noted: for IC50: read-out: IC50 (Hela Cells).
The conditions of data set [7]: cited from earlier work.
For data set [8] the following is noted: cited from earlier work. This is another data set of the same source.
The mark [9] stands for this setting: Hep G2 cells, MTS, 48 h, concentration range 100-20,000 nM.
Where [10] appears, read: read-out: COX-1 IC50, human COX-1, ELISA kit.
[11] abbreviates: Caco-2 cells, MTS, 48 h, concentration range 100-20,000 nM.
[12] abbreviates: read-out: COX-2 IC50, human COX-2, ELISA kit.

Like-named read-outs stand apart in the source and are kept apart here.

COX-1, sequence (P23219 24-599): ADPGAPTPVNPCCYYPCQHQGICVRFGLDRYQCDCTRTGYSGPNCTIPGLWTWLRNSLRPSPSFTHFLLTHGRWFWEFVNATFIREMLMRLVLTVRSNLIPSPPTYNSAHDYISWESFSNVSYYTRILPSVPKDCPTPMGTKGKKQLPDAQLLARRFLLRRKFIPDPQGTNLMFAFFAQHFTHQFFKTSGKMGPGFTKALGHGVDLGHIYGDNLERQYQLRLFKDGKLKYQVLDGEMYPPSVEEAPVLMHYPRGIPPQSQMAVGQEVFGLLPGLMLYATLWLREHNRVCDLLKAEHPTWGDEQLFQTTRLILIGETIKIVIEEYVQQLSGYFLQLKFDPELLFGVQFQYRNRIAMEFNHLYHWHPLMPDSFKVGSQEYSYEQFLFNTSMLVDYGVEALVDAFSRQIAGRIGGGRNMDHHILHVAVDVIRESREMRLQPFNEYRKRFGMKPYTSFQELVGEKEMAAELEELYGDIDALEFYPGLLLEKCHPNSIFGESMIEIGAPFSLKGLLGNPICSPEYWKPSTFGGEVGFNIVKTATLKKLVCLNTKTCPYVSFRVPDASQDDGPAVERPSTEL

The term IC50 denotes the point on the concentration scale where inhibition reaches its midpoint. For the molecule `N[C@@H](CSC1(c2ccccc2)c2ccccc2Oc2ccccc21)C(=O)O` [Compound 6, S-(9-phenyl-9H-xanthen-9-yl)-L-cysteine], the “percentage inhibition of DPPH” value in data set [1] (conc 1 μg/mL) stood at 18.0 ± 1.02%; in data set [1] (conc 2 μg/mL) it was 18.0 ± 2.03%; in data set [1] (conc 3 μg/mL), 22.0 ± 1.01%; in data set [1] (conc 5 μg/mL), 28.0 ± 0.01%; in data set [1] (conc 7 μg/mL), 28.0 ± 0.01%; in data set [1] (conc 10 μg/mL) it was 30.0 ± 0.01%. For the same molecule, the “percentage inhibition of DPPH” value in data set [1] (conc 20 μg/mL), in data set [1] (conc 30 μg/mL) and in data set [1] (conc 50 μg/mL) was 30.0 ± 0.01% throughout. Further, the values for the IC50 in data set [2] and in data set [4] were 42.4 ± 0.58 nM and 130 ± 1.71 nM, respectively. The “IC50 (Hep G2)” value in data set [3] (setting [9]) is reported as “did not exhibit any inhibition”. For the same molecule, in data set [4], the COX-2 selectivity is reported as 0.33.

For 9-Phenyl-9H-xanthen-9-ol [Compound 4], the “percentage inhibition of DPPH” value is 10 ± 0.01% in data set [1] (conc 1 μg/mL); 16.0 ± 0.02% in data set [1] (conc 2 μg/mL); 27.0 ± 0.01% in data set [1] (conc 3 μg/mL); 33.0 ± 1.21% in data set [1] (conc 5 μg/mL); 33.0 ± 2.13% in data set [1] (conc 7 μg/mL); 35.0 ± 2.31% in data set [1] (conc 10 μg/mL). For the same molecule, the “percentage inhibition of DPPH” value in data set [1] (conc 20 μg/mL) is 35.0 ± 3.31%; in data set [1] (conc 30 μg/mL), 39.0 ± 5.51%; in data set [1] (conc 50 μg/mL) it was 39.4 ± 2.44%. In addition, the concentration for half-maximal inhibition (IC50) came out at 15400 ± 6000 nM in data set [1]; 6.52 ± 0.85 nM in data set [2] (setting [10]); 400 ± 56 nM in data set [3] (setting [9]); 24.6 ± 8 nM in data set [5] (setting [11]); 14 ± 1.7 nM in data set [4] (setting [12]). For the same molecule, the “inhibition against Hep G2 cells” value in data set [3] (at 0.2 μM) worked out at 100%. Also, in data set [5] (at 0.2 μM), the “percentage inhibition against Caco-2 cells” value is given as 98%. Besides, in data set [6] (at 0.2 μM), the “inhibition against HeLa cells” value is 98%.

Take `N[C@@H](CSC1(Cc2ccccc2)c2ccccc2Oc2ccccc21)C(=O)O` [Compound 5, S-(9-benzyl-9H-xanthen-9-yl)-L-cysteine]: the “percentage inhibition of DPPH” value in data set [1] (conc 1 μg/mL) was 5.0 ± 0.01%; in data set [1] (conc 2 μg/mL) it was 6.0 ± 0.02%; in data set [1] (conc 3 μg/mL), 7.0 ± 0.01%; in data set [1] (conc 5 μg/mL) it was 7.0 ± 0.51%; in data set [1] (conc 7 μg/mL), 7.0 ± 0.67%; in data set [1] (conc 10 μg/mL), 7.0 ± 0.35%. Further, the “percentage inhibition of DPPH” value in data set [1] (conc 20 μg/mL) amounted to 11.4 ± 1.01%; in data set [1] (conc 30 μg/mL), 11.4 ± 2.10%; in data set [1] (conc 50 μg/mL), 12.0 ± 1.33%.

For the molecule `COc1cccc2c1C(=O)c1c(O)c3c(c(O)c1C2=O)C[C@@](O)(C(=O)CO)C[C@@H]3O[C@H]1C[C@H](N)[C@H](O)[C@H](C)O1` [doxorubicin, reference compound], the half-maximal inhibitory concentration (IC50) worked out at 1060 ± 43 nM in data set [3] (Homo sapiens, HepG2, 48 h); 497 ± 0.36 nM in data set [5] (Homo sapiens, Caco-2, 48 h); 110 ± 15 nM in data set [6] (Homo sapiens, HeLa, 48 h).

By inhibition is commonly meant the percentage by which the read-out fell short of the control. As to `OC1(Cc2ccccc2)c2ccccc2Sc2ccccc21` [Compound 2, 9-Benzyl-9H-thioxanthen-9-ol], the “percentage inhibition of DPPH” value in data set [1] (conc 1 μg/mL) is 0.26 ± 0.01%; in data set [1] (conc 2 μg/mL), 0.26 ± 0.03%; in data set [1] (conc 3 μg/mL), 0.33 ± 0.04%; in data set [1] (conc 5 μg/mL), 0.33 ± 0.01%; in data set [1] (conc 7 μg/mL), 26.00 ± 7.20%; in data set [1] (conc 10 μg/mL) it was 27.00 ± 1.03%. Moreover, the “percentage inhibition of DPPH” value in data set [1] (conc 20 μg/mL) is 28.00 ± 2.14%; in data set [1] (conc 30 μg/mL), 29.00 ± 1.15%; in data set [1] (conc 50 μg/mL) it was 32.00 ± 3.75%. Moreover, the IC50 in data set [2] was 5.63 ± 0.74 nM; in data set [3] (Homo sapiens, HepG2, 48 h), 161 ± 41 nM; in data set [4] it was 7.2 ± 0.58 nM. Besides, the inhibition at 0.2 µM in data set [3] (Homo sapiens, HepG2, read-out: inhibition against Hep G2 cells) was determined as 100%. This molecule gave a COX-2 selectivity in data set [4] of 0.78.

In the case of `N[C@@H](CSC(c1ccccc1)(c1ccccc1)c1ccccc1)C(=O)O` [STLC, S-trityl-L-cysteine], the permeability entry in data set [7] is “poor”. In addition, the water solubility result in data set [8] is “poor”.

Turning to `N[C@@H](CSC1(c2ccccc2)c2ccccc2Sc2ccccc21)C(=O)O` [Compound 7, S-(9-phenyl-9H-thioxanthen-9-yl)-L-cysteine], the “percentage inhibition of DPPH” value in data set [1] (conc 1 μg/mL) is listed as 22.0 ± 3.31%; in data set [1] (conc 2 μg/mL), 22.0 ± 3.11%; in data set [1] (conc 3 μg/mL), 22.0 ± 2.22%; in data set [1] (conc 5 μg/mL), 29.0 ± 4.22%; in data set [1] (conc 7 μg/mL), 22.0 ± 1.22%; in data set [1] (conc 10 μg/mL) it was 26.0 ± 3.44%. Moreover, the “percentage inhibition of DPPH” value in data set [1] (conc 20 μg/mL) is listed as 23.0 ± 1.11%; in data set [1] (conc 30 μg/mL) it was 23.0 ± 1.21%; in data set [1] (conc 50 μg/mL) it was 23.0 ± 3.10%. The values for the half-inhibitory concentration (IC50) in data set [2] and in data set [4] were 16.7 ± 0.84 nM and 4.37 ± 0.78 nM, respectively. For the same molecule, the “IC50 (Hep G2)” value in data set [3] (setting [9]) is recorded as “did not exhibit any inhibition”. The same molecule showed a COX-2 selectivity in data set [4] (listed as comp (7)) of 3.78. Also, in data set [6] (HeLa cells, MTS, 48 h, concentration range 100-20,000 nM), the “IC50 (Hela Cells)” value is listed as “no activity”.

Turning to `OC1(Cc2ccccc2)c2ccccc2Oc2ccccc21` [Compound 1, 9-Benzyl-9H-xanthen-9-ol], the “percentage inhibition of DPPH” value in data set [1] (conc 1 μg/mL) was 0.31 ± 0.02%; in data set [1] (conc 2 μg/mL), 0.36 ± 0.02%; in data set [1] (conc 3 μg/mL), 0.36 ± 0.01%; in data set [1] (conc 5 μg/mL), 0.31 ± 0.01%; in data set [1] (conc 7 μg/mL), 36.40 ± 4.11%; in data set [1] (conc 10 μg/mL), 36.40 ± 3.31%. Further, the “percentage inhibition of DPPH” value turned out to be 40.20 ± 5.21% in data set [1] (conc 20 μg/mL), 35.50 ± 1.01% in data set [1] (conc 30 μg/mL) and 35.10 ± 3.31% in data set [1] (conc 50 μg/mL). The inhibition at 0.2 µM stood at 96% in data set [5] (Homo sapiens, Caco-2, read-out: percentage inhibition against Caco-2 cells) and 96% in data set [6] (Homo sapiens, HeLa, read-out: inhibition against HeLa cells). Also, in data set [6] (Homo sapiens, HeLa, 48 h), the IC50 worked out at 213 nM.

For the molecule `Cc1c(C)c2c(c(C)c1O)CCC(C)(C(=O)O)O2` (stereo not drawn) [Trolox, reference compound], the “percentage inhibition of DPPH” value in data set [1] (conc 1 μg/mL) is reported as 37 ± 2.21%; in data set [1] (conc 2 μg/mL) it was 54 ± 3.42%; in data set [1] (conc 3 μg/mL), 81 ± 4.25%; in data set [1] (conc 5 μg/mL), 86 ± 5.33%; in data set [1] (conc 7 μg/mL) it was 91 ± 7.52%; in data set [1] (conc 10 μg/mL), 92 ± 10.71%. Further, the results for the “percentage inhibition of DPPH” value in data set [1] (conc 20 μg/mL), in data set [1] (conc 30 μg/mL) and in data set [1] (conc 50 μg/mL) were 93 ± 13.90%, 94 ± 10.89% and 94.5 ± 12.64%, respectively. In data set [1], the half-inhibitory concentration (IC50) amounted to 6070 ± 800 nM.

As to “9-Phenyl-9H-thioxanthen-9-ol [Compound 3]”, the “percentage inhibition of DPPH” value in data set [1] (conc 1 μg/mL) is on record as 0.14 ± 0.02%; in data set [1] (conc 2 μg/mL), 0.15 ± 0.01%; in data set [1] (conc 3 μg/mL), 0.15 ± 0.03%; in data set [1] (conc 5 μg/mL) it was 0.29 ± 0.01%; in data set [1] (conc 7 μg/mL), 18.20 ± 1.40%; in data set [1] (conc 10 μg/mL) it was 18.00 ± 2.37%. Also, the “percentage inhibition of DPPH” value in data set [1] (conc 20 μg/mL) is given as 15.60 ± 2.01%; in data set [1] (conc 30 μg/mL), 19.90 ± 1.0%; in data set [1] (conc 50 μg/mL), 20.00 ± 3.12%. Moreover, the IC50 was found to be 12.8 ± 0.63 nM in data set [2] (setting [10]), 438 ± 33 nM in data set [3] (setting [9]), 9.6 ± 1.1 nM in data set [5] (setting [11]) and 7.69 ± 0.55 nM in data set [4] (setting [12]). The same molecule showed a COX-2 selectivity in data set [4] of 1.67.
